In patent publication US11286236B2, “Compound, agent and composition for the suppression of cancer growth” (Vector Vitale IP LLC, priority 2018, dated 2022):

How the values were obtained:
[1] = system: Ehrlich ascites carcinoma; assay: In vivo antitumor activity against Ehrlich ascites carcinoma; parameters: species or system mouse; settings: for Number of animals in the group with tumor / Number of animals in the group without tumor: 14 mice per group
Procedure: Outbred mice were administered Ehrlich ascites carcinoma cells (EAC) intraperitoneally (IP) at a dose of 2.5×10^5 cells in 0.25 ml of normal saline solution. The compounds under study, 1)^85RbeE2, was dissolved in deuterium-depleted water and 2) Cisplatin (Teva, the Netherlands), was dissolved in normal saline solution. The drugs were administered starting from the first day after mice were inoculated with tumor cells, using a microinjection syringe, at the following doses: 1)^85Rbe-E2 at a dose of 750 μg/mouse (weighing 20 g) in a volume of 0.3 ml as 3 IP injections (1 injection—250 μg/mouse) on the 1st, 4th and 7th day of the experiment; 2) Cisplatin at a dose of 4.5 mg/kg or 1.5 mg/kg as 3 IP injections on the 2nd, 5th and 8th day of the experiment. The dynamics of tumor growth in the experimental animals was observed (based on the volume of ascites in the peritoneal cavity) after the tumor cell inoculation and for 31 days of the experiment. On the 15th and 22nd day after IP administration of tumor cells, all the fluid accumulated in each animal's abdomen was extracted and the total number of live/dead cells in each mouse was determined. In addition, some mice were used to assess a survival rate of animals in the experiment.
Laboratory animals. 84 outbred female 10 to 12-week old mice weighing 22-26 g were used in the experimental study. The animals were obtained from the animal vivarium at R.E. Kavetsky IEPOR NASU. […] The animals were maintained in plastic cages, under natural light-dark cycles, fed standard food and allowed free access to food and tap water.
Tumor model. Ascites strain of Ehrlich ascites carcinoma maintained on outbred mice obtained from the cell and tissue line bank at R.E. Kavetsky IEPOR NASU was used in the experiment. To prepare the strain for injection, tumor cells derived from ascitic fluid were placed in normal saline solution and cellularity of the suspension was assessed in a hemocytometer and adjusted to a concentration of 1·10^6 cells/ml with saline solution. The tumor cells were inoculated by injecting 250 mcl of cell suspension from the tumor (0.25×10^6 cells/mouse) into the peritoneal cavity of laboratory animals.
The drugs were administered IP every other day, using a microinjection syringe, at doses specified above as a series of 3 injections of each compound according to the following scheme: ^85Rbe-E2 at a dose of 250 μg/mouse weighing 20 g+CP at a dose of […] 24 hours later (for groups (EAC+CP(4.5)) and (EAC+^85Rbe-E2+CP(4.5)) or […] (for groups (EAC+CP(1.5)) and (EAC+^85Rbe-E2+CP(1.5)) in a volume of 0.25 ml of saline solution (6 injections in total during 8 days).
The tumor growth dynamics in the laboratory animals was observed by daily control of the volume of ascitic fluid in the abdominal cavity of mice starting from the tumor inoculation and for 31 days of the experiment. The dynamics of ascites growth both in control and experimental groups was assessed visually using a 10-point scale, where 0 points were the absence of tumor growth and 10 points were the maximum increase in the size of the abdomen of the mouse with ascites (one point was 0.6 cm of the mean diameter of the mouse abdomen filled with the fluid).
Furthermore, on the 15th and 22nd day after intraperitoneal injection of tumor cells, all ascitic fluid was removed from the abdomen in 2 or 3 animals from each group by washing their peritoneal cavity with saline solution, and live/dead EAC cells were counted in each mouse using the traditional vital dye trypan blue (HyClon, USA) and a hemocytometer.
X=((a)/80)×10^6, where X is the number of cells in 1 ml and a is the number of cells counted in 5 large diagonal squares of the hemocytometer.
7 or 8 mice from each group were used to assess their survival in the experiment. The total lifespan observation time was 31 days from the moment of inoculation of tumor cells.
Statistical data processing. […]

[2] = system: Mouse B16 melanoma cells (MM-4 cell line); assay: Cytotoxic/cytostatic activity of E2+85Rbe and antitumor drug added simultaneously; type: cell-based
Procedure: The effects of the complex action of various doses of the investigated substances were evaluated using the concept of synergistic, additive and antagonistic effects of the drugs. The mathematics are detailed below. […] The effects were calculated using the Chou-Talalay method according to the following equation (“CI” refers to the “combination index”) (see T.-C. […] Where both the ^85Rb-enriched rubidium salt (referred to as “E2+^85Rbe”) and an AD were administered, they were administered simultaneously.

[3] = CP 1.5 mg/kg IP total (combination: + 85Rbe-E2 750 μg/mouse)
[4] = CP 4.5 mg/kg IP total (combination: + 85Rbe-E2 750 μg/mouse)
[5] = Day 15, CP 1.5 mg/kg IP total (combination: + 85Rbe-E2 750 μg/mouse)
[6] = Day 15, CP 4.5 mg/kg IP total (combination: + 85Rbe-E2 750 μg/mouse)
[7] = Day 22, CP 1.5 mg/kg IP total (combination: + 85Rbe-E2 750 μg/mouse)
[8] = Day 22, CP 4.5 mg/kg IP total (combination: + 85Rbe-E2 750 μg/mouse)

## N.N.[Cl][Pt][Cl] [cisplatin]
[1]; [3]
  Animals without tumor, %: 0%
  Number of animals in the group with tumor: 14
  Number of animals in the group without tumor: 0
[1]; [4]
  Animals without tumor, %: 0%
  Number of animals in the group with tumor: 14
  Number of animals in the group without tumor: 0
[1]; [5]
  Number of dead cells/mouse, %: 9.5 ± 2.8%
  Number of live cells/mouse, ×10^6 (M ± m): 1188 ± 116 ×10^6
  Volume of ascites: 5.2 ± 1.3 mL
[1]; [6]
  Number of dead cells/mouse, %: <1%
  Number of live cells/mouse, ×10^6 (M ± m): 33.5 ± 11 ×10^6
  Volume of ascites: 0.4 ± 0.1 mL
[1]; [7]
  Number of dead cells/mouse, %: 11 ± 1%
  Number of live cells/mouse, ×10^6 (M ± m): 1154 ± 429 ×10^6
  Volume of ascites: 14.4 ± 8.7 mL
[1]; [8]
  Number of dead cells/mouse, %: <3%
  Number of live cells/mouse, ×10^6 (M ± m): 430 ± 250 ×10^6
  Volume of ascites: 2.8 ± 1.3 mL
[1]; cisplatin 1.5 mg/kg (combination: + 85Rbe-E2)
  Last day with statistically significant inhibition of EAC growth vs control: 9 days
[1]; cisplatin 1.5 mg/kg mono-regime, only up to the 10th day
  Suppression of tumor growth vs control: 32%
[1]; cisplatin 4.5 mg/kg (combination: + 85Rbe-E2 total 750 mg/mouse as printed), throughout the observation period
  Suppression of tumor growth / decrease in tumor size vs control, average: 51.3%
[1]; day 0, CP 1.5 mg/kg IP total (combination: + 85Rbe-E2 750 μg/mouse)
  Survival, percent of mice: 100%
[1]; day 0, CP 4.5 mg/kg IP total (combination: + 85Rbe-E2 750 μg/mouse)
  Survival, percent of mice: 100%
[1]; day 9, CP 1.5 mg/kg IP total (combination: + 85Rbe-E2 750 μg/mouse IP total)
  Size of mouse abdomen, points: 3.8 ± 0.8 points
[1]; day 9, CP 4.5 mg/kg IP total (combination: + 85Rbe-E2 750 μg/mouse IP total)
  Size of mouse abdomen, points: 2.6 ± 0.2 points
[1]; day 13, CP 1.5 mg/kg IP total (combination: + 85Rbe-E2 750 μg/mouse IP total)
  Size of mouse abdomen, points: 5.9 ± 1.1 points
[1]; day 13, CP 4.5 mg/kg IP total (combination: + 85Rbe-E2 750 μg/mouse IP total)
  Size of mouse abdomen, points: 3.2 ± 0.3 points
[1]; day 15, CP 1.5 mg/kg IP total (combination: + 85Rbe-E2 750 μg/mouse IP total)
  Size of mouse abdomen, points: 6.9 ± 0.4 points
[1]; day 15, CP 1.5 mg/kg IP total (combination: + 85Rbe-E2 750 μg/mouse)
  Survival, percent of mice: 100%
[1]; day 15, CP 4.5 mg/kg (combination: + 85Rbe-E2), p<0.05
  Number of live cells in ascites as fraction of the control: approximately 1/53
[1]; day 15, CP 4.5 mg/kg IP total (combination: + 85Rbe-E2 750 μg/mouse IP total)
  Size of mouse abdomen, points: 3.1 ± 0.4 points
[1]; day 15, CP 4.5 mg/kg IP total (combination: + 85Rbe-E2 750 μg/mouse)
  Survival, percent of mice: 100%
[1]; day 15, EAC+CP(4.5) group, p<0.05
  Number of live cells in ascites, times smaller than in the control: 52 times
[1]; day 17, CP 1.5 mg/kg IP total (combination: + 85Rbe-E2 750 μg/mouse IP total)
  Size of mouse abdomen, points: 7.4 ± 0.6 points
[1]; day 17, CP 1.5 mg/kg IP total (combination: + 85Rbe-E2 750 μg/mouse)
  Survival, percent of mice: 100%
[1]; day 17, CP 4.5 mg/kg IP total (combination: + 85Rbe-E2 750 μg/mouse IP total)
  Size of mouse abdomen, points: 3.4 ± 0.4 points
[1]; day 17, CP 4.5 mg/kg IP total (combination: + 85Rbe-E2 750 μg/mouse)
  Survival, percent of mice: 87.5%
[1]; day 19, CP 1.5 mg/kg IP total (combination: + 85Rbe-E2 750 μg/mouse)
  Survival, percent of mice: 100%
[1]; day 19, CP 4.5 mg/kg IP total (combination: + 85Rbe-E2 750 μg/mouse)
  Survival, percent of mice: 87.5%
[1]; day 20, CP 1.5 mg/kg IP total (combination: + 85Rbe-E2 750 μg/mouse IP total)
  Size of mouse abdomen, points: 8.1 ± 0.6 points
[1]; day 20, CP 4.5 mg/kg IP total (combination: + 85Rbe-E2 750 μg/mouse IP total)
  Size of mouse abdomen, points: 4.8 ± 0.5 points
[1]; day 22, CP 1.5 mg/kg IP total (combination: + 85Rbe-E2 750 μg/mouse IP total)
  Size of mouse abdomen, points: 8.2 ± 0.8 points
[1]; day 22, CP 1.5 mg/kg IP total (combination: + 85Rbe-E2 750 μg/mouse)
  Survival, percent of mice: 100%
[1]; day 22, CP 4.5 mg/kg IP total (combination: + 85Rbe-E2 750 μg/mouse IP total)
  Size of mouse abdomen, points: 4.7 ± 0.7 points
[1]; day 22, CP 4.5 mg/kg IP total (combination: + 85Rbe-E2 750 μg/mouse)
  Survival, percent of mice: 75%
[1]; day 24, CP 1.5 mg/kg IP total (combination: + 85Rbe-E2 750 μg/mouse IP total)
  Size of mouse abdomen, points: 8.6 ± 0.8 points
[1]; day 24, CP 1.5 mg/kg IP total (combination: + 85Rbe-E2 750 μg/mouse)
  Survival, percent of mice: 100%
[1]; day 24, CP 4.5 mg/kg IP total (combination: + 85Rbe-E2 750 μg/mouse IP total)
  Size of mouse abdomen, points: 5.2 ± 0.9 points
[1]; day 24, CP 4.5 mg/kg IP total (combination: + 85Rbe-E2 750 μg/mouse)
  Survival, percent of mice: 75%
[1]; day 25, CP 1.5 mg/kg IP total (combination: + 85Rbe-E2 750 μg/mouse)
  Survival, percent of mice: 100%
[1]; day 25, CP 4.5 mg/kg IP total (combination: + 85Rbe-E2 750 μg/mouse)
  Survival, percent of mice: 75%
[1]; day 26, CP 1.5 mg/kg IP total (combination: + 85Rbe-E2 750 μg/mouse)
  Survival, percent of mice: 100%
[1]; day 26, CP 4.5 mg/kg IP total (combination: + 85Rbe-E2 750 μg/mouse)
  Survival, percent of mice: 75%
[1]; day 27, CP 1.5 mg/kg IP total (combination: + 85Rbe-E2 750 μg/mouse IP total)
  Size of mouse abdomen, points: 8.4 ± 1 points
[1]; day 27, CP 1.5 mg/kg IP total (combination: + 85Rbe-E2 750 μg/mouse)
  Survival, percent of mice: 87.5%
[1]; day 27, CP 4.5 mg/kg IP total (combination: + 85Rbe-E2 750 μg/mouse IP total), listed as CP
  Size of mouse abdomen, points: 5.2±0.9 points
[1]; day 27, CP 4.5 mg/kg IP total (combination: + 85Rbe-E2 750 μg/mouse)
  Survival, percent of mice: 75%
[1]; day 28, CP 1.5 mg/kg IP total (combination: + 85Rbe-E2 750 μg/mouse)
  Survival, percent of mice: 75%
[1]; day 28, CP 4.5 mg/kg IP total (combination: + 85Rbe-E2 750 μg/mouse)
  Survival, percent of mice: 75%
[1]; day 29, CP 1.5 mg/kg IP total (combination: + 85Rbe-E2 750 μg/mouse IP total)
  Size of mouse abdomen, points: 8.4 ± 1 points
[1]; day 29, CP 1.5 mg/kg IP total (combination: + 85Rbe-E2 750 μg/mouse), listed as CP
  Survival, percent of mice: 50%
[1]; day 29, CP 4.5 mg/kg IP total (combination: + 85Rbe-E2 750 μg/mouse IP total)
  Size of mouse abdomen, points: 5.4 ± 0.9 points
[1]; day 29, CP 4.5 mg/kg IP total (combination: + 85Rbe-E2 750 μg/mouse), listed as CP
  Survival, percent of mice: 75%
[1]; day 31, CP 1.5 mg/kg IP total (combination: + 85Rbe-E2 750 μg/mouse IP total)
  Size of mouse abdomen, points: 7.9 ± 1.4 points
[1]; day 31, CP 1.5 mg/kg IP total (combination: + 85Rbe-E2 750 μg/mouse), listed as CP
  Survival, percent of mice: 37.5%
[1]; day 31, CP 4.5 mg/kg IP total (combination: + 85Rbe-E2 750 μg/mouse IP total)
  Size of mouse abdomen, points: 6 ± 1.3 points
[1]; day 31, CP 4.5 mg/kg IP total (combination: + 85Rbe-E2 750 μg/mouse), listed as CP
  Survival, percent of mice: 62.5%
[2]; cisplatinum 0.5 μg/ml alone
  % surviving MM-4 cells: 84 ± 3.3%
[2]; cisplatinum 1 μg/ml alone
  % surviving MM-4 cells: 51.7 ± 6.9%
[2]; cisplatinum 2.5 μg/ml alone
  % surviving MM-4 cells: 24.6 ± 5.2%
[2]; cisplatinum 5 μg/ml alone
  % surviving MM-4 cells: 13.8 ± 1.2%
[2]; cisplatinum 10 μg/ml alone
  % surviving MM-4 cells: 2.6 ± 1.4%
